The text below walks through data of patent publication US20220226265A1, “METHODS OF CONTROLLING MYOCARDIAL BLOOD FLOW” (UNIVERSITY OF LOUISVILLE RESEARCH FOUNDATION, INC., priority 2021, published 2022).

The subject of the experiment is WT and Kvβ2−/− mice. As to the kind of experiment: Arterial blood pressure (femoral artery catheter) during norepinephrine infusion. It counts as in vivo, mouse. Particulars: norepinephrine infusion 5 μg/kg·min−1. From the text: In vivo measurements of cardiac function and myocardial blood flow: Mice were anesthetized with 3% isoflurane and supplemental O2, administered (1 L·min^−1) in a small induction chamber. After induction, the mice were placed on a controlled heating table in a supine position. Anesthesia was maintained throughout the procedure by delivery of 1-2% isoflurane and supplemental O2 (0.5 L·min^−1). The extremities were secured to the surgical table by tape and a lubricated probe was inserted rectally to monitor body temperature. The chest, neck, and hind limb hair were then removed using a depilatory agent, the skin was rinsed with warm water, and the neck area was disinfected with 70% ethanol/betadine and an incision (10-15 mm) was made at the right side of the neck. […]
Measurements of cardiac function, myocardial perfusion, and arterial blood pressure were performed at baseline, after administration of hexamethonium (5 mg·kg^−1, i.v.), and following successive doses of norepinephrine (0.5, 1.0, 2.5, and 5.0 μg·kg^−1·min^−1; 3 min duration each dose, followed by 3-5 min washout). […] Left ventricular volume at end diastole (LVEDV) and end systole (LVESV), as well left ventricular internal diameter at end diastole (LVID,d) and end systole (LVID,s) were measured at steady state after drug infusions. […]

For the compound `NC[C@H](O)c1ccc(O)c(O)c1` [norepinephrine], the “time of infusion after which norepinephrine-induced elevation of pressure declined” value (Kvβ2−/− mice) is recorded as approximately 40 s. The “increase in arterial blood pressure” value (WT animals) is given as “sustained for the duration of drug administration”.
